Laboratory results taken from the kinase profiling compilation of Christmann-Franck et al. (2016).

Tests used:
[1] = target: ABL2 (human) (UniProt P42684)
[2] = target: ATM (human) (UniProt Q13315)
[3] = target: BMP2K (human) (UniProt Q9NSY1)
[4] = target: BTK (human) (UniProt Q06187)
[5] = target: CAMK2B (human) (UniProt Q13554)
[6] = target: CAMK2D (human) (UniProt Q13557)
[7] = target: CAMKK2 (human) (UniProt Q96RR4)
[8] = target: CDK14 (human) (UniProt O94921)
[9] = target: CSNK2A1 (human) (UniProt P68400)
[10] = target: CSNK2A2 (human) (UniProt P19784)
[11] = target: DDR1 (human) (UniProt Q08345)
[12] = target: FES (human) (UniProt P07332)
[13] = target: FGR (human) (UniProt P09769)
[14] = target: HCK (human) (UniProt P08631)
[15] = target: IRAK3 (human) (UniProt Q9Y616)
[16] = target: ITK (human) (UniProt Q08881)
Chain of ITK (human) (Q08881 whole entry, looked up): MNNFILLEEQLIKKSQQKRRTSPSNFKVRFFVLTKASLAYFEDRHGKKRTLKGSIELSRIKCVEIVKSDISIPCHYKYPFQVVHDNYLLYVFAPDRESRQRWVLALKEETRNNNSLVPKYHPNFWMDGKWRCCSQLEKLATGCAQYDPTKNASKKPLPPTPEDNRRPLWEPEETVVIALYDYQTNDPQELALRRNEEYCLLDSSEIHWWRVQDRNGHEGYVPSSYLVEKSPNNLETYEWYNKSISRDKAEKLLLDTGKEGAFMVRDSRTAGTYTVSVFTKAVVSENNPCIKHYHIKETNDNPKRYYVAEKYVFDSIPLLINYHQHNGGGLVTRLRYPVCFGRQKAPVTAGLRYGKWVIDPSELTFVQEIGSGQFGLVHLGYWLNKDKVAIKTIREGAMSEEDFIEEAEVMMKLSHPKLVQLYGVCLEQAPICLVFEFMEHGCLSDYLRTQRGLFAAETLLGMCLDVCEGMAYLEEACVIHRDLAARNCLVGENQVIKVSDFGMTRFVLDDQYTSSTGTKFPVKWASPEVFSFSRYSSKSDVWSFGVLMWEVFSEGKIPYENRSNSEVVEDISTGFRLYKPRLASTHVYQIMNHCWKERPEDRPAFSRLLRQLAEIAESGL

[17] = target: JAK1 JH1 JH2 (human) (UniProt P23458)
[18] = target: JAK3 JH1 JH2 (human) (UniProt P52333)
Chain of JAK3 JH1 JH2 (human) (P52333 whole entry, looked up): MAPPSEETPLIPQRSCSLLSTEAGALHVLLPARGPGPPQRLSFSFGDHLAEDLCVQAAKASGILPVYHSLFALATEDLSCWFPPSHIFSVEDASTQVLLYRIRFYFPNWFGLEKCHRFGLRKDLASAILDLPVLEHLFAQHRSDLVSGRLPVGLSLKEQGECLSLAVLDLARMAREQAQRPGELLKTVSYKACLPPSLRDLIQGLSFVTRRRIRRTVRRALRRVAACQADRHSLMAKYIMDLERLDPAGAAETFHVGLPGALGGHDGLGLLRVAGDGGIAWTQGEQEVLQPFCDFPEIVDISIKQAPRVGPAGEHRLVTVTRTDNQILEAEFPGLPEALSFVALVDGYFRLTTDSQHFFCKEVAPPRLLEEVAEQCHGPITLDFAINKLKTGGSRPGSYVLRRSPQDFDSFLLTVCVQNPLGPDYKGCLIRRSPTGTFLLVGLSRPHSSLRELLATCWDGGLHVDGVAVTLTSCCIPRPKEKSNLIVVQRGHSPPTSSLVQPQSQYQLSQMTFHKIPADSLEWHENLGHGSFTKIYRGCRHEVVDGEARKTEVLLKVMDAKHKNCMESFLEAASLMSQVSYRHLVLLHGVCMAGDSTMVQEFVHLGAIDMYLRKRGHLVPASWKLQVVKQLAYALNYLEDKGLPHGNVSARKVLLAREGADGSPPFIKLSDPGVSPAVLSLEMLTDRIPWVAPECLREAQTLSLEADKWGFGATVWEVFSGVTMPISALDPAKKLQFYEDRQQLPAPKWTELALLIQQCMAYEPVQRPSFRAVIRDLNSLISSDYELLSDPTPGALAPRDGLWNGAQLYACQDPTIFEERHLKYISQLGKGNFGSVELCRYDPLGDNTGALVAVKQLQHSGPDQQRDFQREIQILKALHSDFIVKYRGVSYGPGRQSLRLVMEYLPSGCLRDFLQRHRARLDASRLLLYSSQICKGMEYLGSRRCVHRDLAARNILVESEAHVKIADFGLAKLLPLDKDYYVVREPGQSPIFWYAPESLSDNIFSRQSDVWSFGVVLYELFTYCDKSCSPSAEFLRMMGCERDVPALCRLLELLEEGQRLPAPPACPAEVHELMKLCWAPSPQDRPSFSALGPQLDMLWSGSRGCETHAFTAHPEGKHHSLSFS

[19] = target: LYN (human) (UniProt P07948)
[20] = target: MAP2K2 (human) (UniProt P36507)
[21] = target: MAP2K6 (human) (UniProt P52564)
Chain of MAP2K6 (human) (P52564 whole entry, looked up): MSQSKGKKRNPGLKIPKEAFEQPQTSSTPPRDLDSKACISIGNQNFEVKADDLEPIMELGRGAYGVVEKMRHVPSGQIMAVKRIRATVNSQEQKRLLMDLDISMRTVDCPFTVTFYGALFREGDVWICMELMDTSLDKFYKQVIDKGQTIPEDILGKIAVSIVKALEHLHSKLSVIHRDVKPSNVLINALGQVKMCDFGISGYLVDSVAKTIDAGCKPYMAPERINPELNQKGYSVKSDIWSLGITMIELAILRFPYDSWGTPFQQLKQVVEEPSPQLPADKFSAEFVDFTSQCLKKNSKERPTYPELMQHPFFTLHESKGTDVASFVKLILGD

[22] = target: MAP3K2 (human) (UniProt Q9Y2U5)
[23] = target: MAP3K4 (human) (UniProt Q9Y6R4)
[24] = target: MAP4K1 (human) (UniProt Q92918)
[25] = target: MAP4K2 (human) (UniProt Q12851)
[26] = target: MAP4K5 (human) (UniProt Q9Y4K4)
[27] = target: MAPK1 (human) (UniProt P28482)
[28] = target: MTOR (human) (UniProt P42345)
[29] = target: NEK7 (human) (UniProt Q8TDX7)
[30] = target: NEK9 (human) (UniProt Q8TD19)
[31] = target: PAK4 (human) (UniProt O96013)
[32] = target: PKN1 (human) (UniProt Q16512)
[33] = target: PRKAA1 (human) (UniProt Q13131)
[34] = target: PRKACB (human) (UniProt P22694)
[35] = target: PRKDC (human) (UniProt P78527)
[36] = target: PTK2 (human) (UniProt Q05397)
[37] = target: RPS6KA1 KD1 KD2 (human) (UniProt Q15418)
[38] = target: RPS6KA4 KD1 KD2 (human) (UniProt O75676)
[39] = target: STRADA (human) (UniProt Q7RTN6)
[40] = target: SYK (human) (UniProt P43405)
[41] = target: TEC (human) (UniProt P42680)
[42] = target: TYK2 JH1 JH2 (human) (UniProt P29597)
Chain of TYK2 JH1 JH2 (human) (P29597 whole entry, looked up): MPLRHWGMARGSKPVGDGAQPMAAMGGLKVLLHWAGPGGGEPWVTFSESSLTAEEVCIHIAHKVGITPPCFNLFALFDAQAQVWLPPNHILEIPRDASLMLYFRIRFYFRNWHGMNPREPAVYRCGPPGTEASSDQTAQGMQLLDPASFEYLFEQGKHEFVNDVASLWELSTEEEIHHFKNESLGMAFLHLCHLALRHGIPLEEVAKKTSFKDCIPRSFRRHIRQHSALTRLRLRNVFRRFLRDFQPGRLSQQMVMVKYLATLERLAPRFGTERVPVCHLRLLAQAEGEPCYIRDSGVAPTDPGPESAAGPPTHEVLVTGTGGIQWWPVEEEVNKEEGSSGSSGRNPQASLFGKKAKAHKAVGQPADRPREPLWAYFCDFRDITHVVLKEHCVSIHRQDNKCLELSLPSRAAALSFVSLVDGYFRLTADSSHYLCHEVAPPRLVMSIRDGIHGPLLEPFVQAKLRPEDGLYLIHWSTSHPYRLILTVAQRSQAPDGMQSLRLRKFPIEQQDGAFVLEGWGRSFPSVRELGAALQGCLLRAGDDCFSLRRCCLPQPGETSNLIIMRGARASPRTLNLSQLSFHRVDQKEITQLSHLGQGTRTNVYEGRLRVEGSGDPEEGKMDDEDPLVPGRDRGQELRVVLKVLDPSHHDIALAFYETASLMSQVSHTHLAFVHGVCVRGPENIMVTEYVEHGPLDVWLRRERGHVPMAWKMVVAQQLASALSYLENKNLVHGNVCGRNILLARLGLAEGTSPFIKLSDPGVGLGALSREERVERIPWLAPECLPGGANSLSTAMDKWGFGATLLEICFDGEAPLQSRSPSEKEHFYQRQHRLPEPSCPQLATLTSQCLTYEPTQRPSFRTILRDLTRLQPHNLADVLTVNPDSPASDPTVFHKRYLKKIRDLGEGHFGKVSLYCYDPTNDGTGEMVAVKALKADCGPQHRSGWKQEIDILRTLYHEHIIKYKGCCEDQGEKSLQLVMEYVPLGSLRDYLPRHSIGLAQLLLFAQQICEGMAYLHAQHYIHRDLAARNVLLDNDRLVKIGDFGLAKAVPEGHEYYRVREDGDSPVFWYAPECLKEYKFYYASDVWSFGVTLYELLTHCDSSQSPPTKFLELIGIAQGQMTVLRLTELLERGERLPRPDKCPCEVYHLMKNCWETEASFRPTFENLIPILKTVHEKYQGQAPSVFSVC

[43] = target: WEE1 (human) (UniProt P30291)
[44] = target: YES1 (human) (UniProt P07947)

Chain of ABL2 (human) (P42684 whole entry, looked up): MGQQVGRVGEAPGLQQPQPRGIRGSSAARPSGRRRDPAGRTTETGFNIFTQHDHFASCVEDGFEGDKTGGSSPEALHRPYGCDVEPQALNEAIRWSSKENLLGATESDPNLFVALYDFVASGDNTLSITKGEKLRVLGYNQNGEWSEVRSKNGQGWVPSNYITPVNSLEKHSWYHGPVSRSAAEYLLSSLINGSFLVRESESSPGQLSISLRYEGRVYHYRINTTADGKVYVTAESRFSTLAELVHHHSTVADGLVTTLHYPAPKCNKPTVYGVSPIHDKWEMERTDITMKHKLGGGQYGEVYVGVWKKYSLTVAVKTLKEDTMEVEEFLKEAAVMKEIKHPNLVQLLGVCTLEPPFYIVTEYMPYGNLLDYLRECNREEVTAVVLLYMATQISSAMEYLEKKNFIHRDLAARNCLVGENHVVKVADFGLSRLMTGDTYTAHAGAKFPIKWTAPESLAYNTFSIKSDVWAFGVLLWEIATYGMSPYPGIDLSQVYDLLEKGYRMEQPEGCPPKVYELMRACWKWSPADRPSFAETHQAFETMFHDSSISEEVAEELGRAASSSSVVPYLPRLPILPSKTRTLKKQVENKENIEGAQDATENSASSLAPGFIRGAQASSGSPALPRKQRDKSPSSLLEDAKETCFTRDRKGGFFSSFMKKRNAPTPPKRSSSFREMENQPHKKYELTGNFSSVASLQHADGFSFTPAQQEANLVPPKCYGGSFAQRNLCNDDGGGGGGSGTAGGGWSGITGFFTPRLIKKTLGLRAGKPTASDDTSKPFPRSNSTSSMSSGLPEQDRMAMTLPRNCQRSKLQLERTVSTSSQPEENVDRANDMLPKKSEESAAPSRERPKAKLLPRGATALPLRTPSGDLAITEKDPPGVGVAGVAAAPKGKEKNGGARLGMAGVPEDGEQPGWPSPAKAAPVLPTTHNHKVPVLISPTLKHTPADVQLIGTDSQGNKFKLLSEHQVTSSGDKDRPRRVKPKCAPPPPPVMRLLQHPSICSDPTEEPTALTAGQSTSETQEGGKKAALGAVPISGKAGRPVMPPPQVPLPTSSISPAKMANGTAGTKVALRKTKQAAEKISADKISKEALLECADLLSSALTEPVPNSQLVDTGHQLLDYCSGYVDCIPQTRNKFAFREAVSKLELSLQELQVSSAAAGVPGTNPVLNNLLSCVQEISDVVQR
Chain of CAMKK2 (human) (Q96RR4 whole entry, looked up): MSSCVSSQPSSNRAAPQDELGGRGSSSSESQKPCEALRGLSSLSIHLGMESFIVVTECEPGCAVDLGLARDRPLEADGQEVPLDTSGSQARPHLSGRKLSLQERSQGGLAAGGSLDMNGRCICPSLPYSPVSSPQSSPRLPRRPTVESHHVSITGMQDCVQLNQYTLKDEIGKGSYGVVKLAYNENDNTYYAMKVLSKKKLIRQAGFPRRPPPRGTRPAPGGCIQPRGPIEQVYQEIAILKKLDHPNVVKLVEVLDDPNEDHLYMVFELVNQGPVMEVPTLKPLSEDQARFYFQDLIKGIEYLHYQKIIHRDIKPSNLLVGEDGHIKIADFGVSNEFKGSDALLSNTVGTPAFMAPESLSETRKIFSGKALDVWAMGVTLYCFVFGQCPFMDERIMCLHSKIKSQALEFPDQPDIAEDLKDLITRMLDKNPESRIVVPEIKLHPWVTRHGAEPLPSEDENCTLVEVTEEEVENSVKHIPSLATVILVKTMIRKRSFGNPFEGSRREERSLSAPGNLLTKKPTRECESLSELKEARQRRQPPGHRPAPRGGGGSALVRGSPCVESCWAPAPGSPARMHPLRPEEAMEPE

## CN1CC[C@H](c2c(O)cc(O)c3c(=O)cc(-c4ccccc4Cl)oc23)[C@H](O)C1
[1]
  IC50: > 10 µM
[2]
  IC50: > 10 µM
[3]
  IC50: > 10 µM
[4]
  IC50: > 10 µM
[5]
  IC50: 7.68 µM
[6]
  IC50: 7.67 µM
[7]
  IC50: 0.925 µM
[8]
  IC50: 2.96 µM
[9]
  IC50: 9.42 µM
[10]
  IC50: > 10 µM
[11]
  IC50: > 10 µM
[12]
  IC50: > 10 µM
[13]
  IC50: > 10 µM
[14]
  IC50: > 10 µM
[15]
  IC50: > 10 µM
[16]
  IC50: > 10 µM
[17]
  IC50: > 10 µM
[18]
  IC50: > 10 µM
[19]
  IC50: > 10 µM
[20]
  IC50: > 10 µM
[21]
  IC50: > 10 µM
[22]
  IC50: > 10 µM
[23]
  IC50: > 10 µM
[24]
  IC50: > 10 µM
[25]
  IC50: > 10 µM
[26]
  IC50: > 10 µM
[27]
  IC50: > 10 µM
[28]
  IC50: > 10 µM
[29]
  IC50: > 10 µM
[30]
  IC50: > 10 µM
[31]
  IC50: > 10 µM
[32]
  IC50: > 10 µM
[33]
  IC50: > 10 µM
[34]
  IC50: > 10 µM
[35]
  IC50: > 10 µM
[36]
  IC50: > 10 µM
[37]
  IC50: 8.74 µM
[38]
  IC50: 6.42 µM
[39]
  IC50: > 10 µM
[40]
  IC50: > 10 µM
[41]
  IC50: > 10 µM
[42]
  IC50: 2.48 µM
[43]
  IC50: > 10 µM
[44]
  IC50: > 10 µM
